According to PubChem BioAssay (NCI):
Several values for one entry are separate records, joined by “and”; a condition that tells them apart may be missing. Identical values can stand only once.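 The compound was tested at five concentrations on cells cultured in 96-well plates, with a 48-hour exposure period. The concentration for 50% growth inhibition is given as GI50. TGI denotes the concentration required for complete inhibition of growth.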 Where a SMILES comes first, the peptide text is derived from it. The star is where a group is joined. Cbz = O=C(OCc1ccccc1)*; Boc = CC(C)(C)OC(=O)*; Bn = c1ccc(C*)cc1

Key:
Test in all cases: inhibition of tumour cell growth, NCI panel, 48 h
CCRF-CEM leukemia = tested on: CCRF-CEM leukemia
KM12 colon = tested on: KM12 colon
NCI-H226 lung = tested on: NCI-H226 lung
HCT-116 colon = tested on: HCT-116 colon
K-562 leukemia = tested on: K-562 leukemia
HT29 colon = tested on: HT29 colon
HOP-92 NSCLC = tested on: HOP-92 NSCLC
IGROV1 ovarian = tested on: IGROV1 ovarian
EKVX NSCLC = tested on: EKVX NSCLC
RXF 393 renal = tested on: RXF 393 renal
A498 renal = tested on: A498 renal
MCF7 breast = tested on: MCF7 breast
MDA-MB-231 breast = tested on: MDA-MB-231 breast
CAKI-1 renal = tested on: CAKI-1 renal
MDA-MB-435 = tested on: MDA-MB-435
DU-145 prostate = tested on: DU-145 prostate
BT-549 breast = tested on: BT-549 breast
T-47D breast = tested on: T-47D breast

SMILES	TGI (CCRF-CEM leukemia)	TGI (KM12 colon)	TGI (NCI-H226 lung)	TGI (HCT-116 colon)	TGI (K-562 leukemia)	TGI (HT29 colon)	TGI (HOP-92 NSCLC)	TGI (IGROV1 ovarian)	TGI (EKVX NSCLC)	GI50 (RXF 393 renal)	TGI (RXF 393 renal)	TGI (A498 renal)	TGI (MCF7 breast)	TGI (MDA-MB-231 breast)	TGI (CAKI-1 renal)	TGI (MDA-MB-435)	TGI (DU-145 prostate)	TGI (BT-549 breast)	TGI (T-47D breast)	GI50 (KM12 colon)
COc1cc(C2c3cc4c(cc3[C@@H](NCCN3CCCCC3)C3COC(=O)[C@H]23)OCO4)cc(OC)c1O (stereo partly specified)	0.36 µM and 0.465 µM	3.8 µM and 3.88 µM	0.209 µM and 0.208 µM	10.6 µM and 14.6 µM	20.8 µM and 18 µM	3.56 µM	0.84 µM and 1.64 µM	4.56 µM and 7.55 µM	5.28 µM and 5.71 µM	0.243 µM and 1.27 µM	1.98 µM and 4.14 µM	0.904 µM and 1.47 µM								
CCOC(=O)NC(C(=O)OCC)C(F)(F)F (stereo unspecified)	> 100 µM	> 100 µM		> 100 µM	> 100 µM	> 100 µM	> 100 µM	> 100 µM	> 100 µM				> 100 µM	> 100 µM	> 100 µM					
OCC1OC(Oc2cc(O)cc(/C=C/c3ccc(O)cc3)c2)C(O)C(O)C1O (stereo unspecified)	> 100 µM	> 100 µM	> 100 µM	> 100 µM	> 100 µM	> 100 µM	> 100 µM	> 100 µM	> 100 µM		> 100 µM	> 100 µM	> 100 µM	> 100 µM	> 100 µM	> 100 µM	> 100 µM	> 100 µM		
CN=CN(C)c1c2ccccc2nc2ccccc12	> 100 µM	> 100 µM	> 100 µM	> 100 µM	> 100 µM	> 100 µM	> 100 µM	> 100 µM	> 100 µM		> 100 µM	> 100 µM	> 100 µM	> 100 µM	> 100 µM	> 100 µM	> 100 µM		> 100 µM	
OCC1OC(NCCNCCNC2OC(CO)C(O)C(O)C2O)C(O)C(O)C1O (stereo unspecified)	> 100 µM	22.5 µM and > 100 µM	> 100 µM	> 100 µM	> 100 µM	> 100 µM	> 100 µM	> 100 µM	> 100 µM		> 100 µM	> 100 µM	> 100 µM	> 100 µM	10.3 µM and > 100 µM		> 100 µM	> 100 µM	> 100 µM	10.4 µM and 43.3 µM and > 100 µM
CC(C)(C)OC(=O)NC(Cc1ccc(OCc2ccccc2)cc1)C(=O)NC(CCCCNC(=O)OCc1ccccc1)C(=O)O (stereo unspecified) (Boc-Tyr(Bn)-Lys(Cbz)-OH; configuration not given here)	> 100 µM	> 100 µM	> 100 µM	> 100 µM	> 100 µM	> 100 µM	48.5 µM	> 100 µM	> 100 µM		> 100 µM		> 100 µM	> 100 µM				60.8 µM		
NC1=NNC2(C(=O)N1)c1ccccc1-c1ccccc12	> 10 µM	> 10 µM	> 10 µM	> 10 µM	> 10 µM		> 10 µM	> 10 µM			> 10 µM	> 10 µM	> 10 µM		> 10 µM				> 10 µM	
COc1ccc(N(C)Sc2ccccc2)cc1	58.6 µM	> 100 µM		> 100 µM	> 100 µM		> 100 µM	> 100 µM			53.4 µM									
O=c1[nH]c(=O)n(COCCO)c2ccc(Br)cc12	> 100 µM	> 100 µM	> 100 µM	> 100 µM	> 100 µM	> 100 µM	> 100 µM	> 100 µM	> 100 µM		> 100 µM	> 100 µM	> 100 µM	> 100 µM	> 100 µM	> 100 µM	> 100 µM			
C(=Nc1ccc(-c2cc(-c3ccccc3)nc3ccc4ccccc4c23)cc1)c1ccccc1	> 100 µM	68 µM	66.3 µM	> 100 µM	> 100 µM	40.3 µM		> 100 µM	92.8 µM		47.9 µM	70.3 µM	> 100 µM	> 100 µM	75.4 µM	55.5 µM	68.6 µM			
COC(=O)[C@@H](O)[C@]1(C(=O)OC)C2O[C@@H](OC)[C@@H]1CCCCCC[C@H]2O	> 100 µM	> 100 µM	> 100 µM	> 100 µM	> 100 µM	> 100 µM		> 100 µM	> 100 µM		> 100 µM			> 100 µM	> 100 µM	> 100 µM		> 100 µM		
COc1ccc(C(=O)c2sc(Nc3ccccc3)nc2N)cc1	> 100 µM		> 100 µM		> 100 µM	> 100 µM	> 100 µM	> 100 µM	> 100 µM		> 100 µM	> 100 µM	> 100 µM	> 100 µM			> 100 µM	> 100 µM	> 100 µM	
O=C(Cc1ccccc1)NN1C(=O)C(Cl)C1c1ccc([N+](=O)[O-])cc1 (stereo unspecified)		> 100 µM	> 100 µM	> 100 µM	> 100 µM	> 100 µM		> 100 µM	> 100 µM		> 100 µM				> 100 µM					
CC(=O)CCC(=O)C(=[N+]=[N-])S(=O)(=O)c1ccccc1	> 100 µM	> 100 µM		> 100 µM	> 100 µM	> 100 µM		> 100 µM	> 100 µM		> 100 µM		> 100 µM	> 100 µM		> 100 µM	> 100 µM	> 100 µM		
C=C[C@H]1CC[C@H]2[C@@H]3CC=C4C[C@@H](OC5OCC(O)C(O)C5O)CC[C@]4(C)[C@H]3CC[C@]12C (stereo partly specified)	> 100 µM	31.8 µM	34.6 µM	28.4 µM	> 100 µM	61.3 µM	16.8 µM	45.2 µM				21 µM	> 100 µM	39.6 µM	23.8 µM	47.8 µM	> 100 µM		55.3 µM	
CN(C(=O)c1ccc(Cl)cc1)C(=S)N1CCN(c2ccccn2)CC1	> 100 µM	> 100 µM	> 100 µM	> 100 µM	> 100 µM	> 100 µM	> 100 µM	> 100 µM			> 100 µM				> 100 µM					
O=C1NCCCC12CCCNC2=O	> 100 µM	> 100 µM	> 100 µM	> 100 µM	> 100 µM	> 100 µM		> 100 µM	> 100 µM		> 100 µM									
